# According to ChEMBL document CHEMBL1145013, “Studies on the mechanisms of activation of indolequinone phosphoramidate prodrugs” (J Med Chem, 2003):
# What was measured:
# [1] = Half life in presence of sodium dimethyldithiocarbamate; type: ADME; conditions: solution containing sodium dimethyldithiocarbamate
# [2] = Half life in presence of glutathione; type: ADME; conditions: solution containing glutathione
SMILES,half-life [1],half-life [2]
COC1=CC(=O)c2c(c(COP(N)(=O)N(CCBr)CCBr)cn2C)C1=O (stereo not drawn),14 min,35 min
COC1=CC(=O)c2c(cc(COP(N)(=O)N3CCOCC3)n2C)C1=O (stereo not drawn),659 min,716 min
COC1=CC(=O)c2c(cc(COP(N)(=O)N(CCBr)CCBr)n2C)C1=O (stereo not drawn),26 min,653 min
COC1=CC(=O)c2c(c(COP(N)(=O)N3CCOCC3)cn2C)C1=O (stereo not drawn),34 min,83 min
